Laboratory results as given in US9951044B2, “Quinazoline derivatives and their use as DNA methyltransferase inhibitors” (PIERRE FABRE MEDICAMENT, priority 2013, dated 2018).

Assays:
[1] = molecular target: T1, His-DNMT1 (182 kDa, human) (Homo sapiens, UniProt P26358); test: DNMT1 assay ([methyl-3H] SAM Flashplate); format: biochemical; conditions: for inhibition at 32 µM: compound at 32 μM, read-out: DNMT1 (% of inhibition) 32 μM; for inhibition at 100 µM: compound at 100 μM, read-out: DNMT1 (% of inhibition) 100 μM
T1 construct: His; made in house
T1 sequence (P26358 whole entry): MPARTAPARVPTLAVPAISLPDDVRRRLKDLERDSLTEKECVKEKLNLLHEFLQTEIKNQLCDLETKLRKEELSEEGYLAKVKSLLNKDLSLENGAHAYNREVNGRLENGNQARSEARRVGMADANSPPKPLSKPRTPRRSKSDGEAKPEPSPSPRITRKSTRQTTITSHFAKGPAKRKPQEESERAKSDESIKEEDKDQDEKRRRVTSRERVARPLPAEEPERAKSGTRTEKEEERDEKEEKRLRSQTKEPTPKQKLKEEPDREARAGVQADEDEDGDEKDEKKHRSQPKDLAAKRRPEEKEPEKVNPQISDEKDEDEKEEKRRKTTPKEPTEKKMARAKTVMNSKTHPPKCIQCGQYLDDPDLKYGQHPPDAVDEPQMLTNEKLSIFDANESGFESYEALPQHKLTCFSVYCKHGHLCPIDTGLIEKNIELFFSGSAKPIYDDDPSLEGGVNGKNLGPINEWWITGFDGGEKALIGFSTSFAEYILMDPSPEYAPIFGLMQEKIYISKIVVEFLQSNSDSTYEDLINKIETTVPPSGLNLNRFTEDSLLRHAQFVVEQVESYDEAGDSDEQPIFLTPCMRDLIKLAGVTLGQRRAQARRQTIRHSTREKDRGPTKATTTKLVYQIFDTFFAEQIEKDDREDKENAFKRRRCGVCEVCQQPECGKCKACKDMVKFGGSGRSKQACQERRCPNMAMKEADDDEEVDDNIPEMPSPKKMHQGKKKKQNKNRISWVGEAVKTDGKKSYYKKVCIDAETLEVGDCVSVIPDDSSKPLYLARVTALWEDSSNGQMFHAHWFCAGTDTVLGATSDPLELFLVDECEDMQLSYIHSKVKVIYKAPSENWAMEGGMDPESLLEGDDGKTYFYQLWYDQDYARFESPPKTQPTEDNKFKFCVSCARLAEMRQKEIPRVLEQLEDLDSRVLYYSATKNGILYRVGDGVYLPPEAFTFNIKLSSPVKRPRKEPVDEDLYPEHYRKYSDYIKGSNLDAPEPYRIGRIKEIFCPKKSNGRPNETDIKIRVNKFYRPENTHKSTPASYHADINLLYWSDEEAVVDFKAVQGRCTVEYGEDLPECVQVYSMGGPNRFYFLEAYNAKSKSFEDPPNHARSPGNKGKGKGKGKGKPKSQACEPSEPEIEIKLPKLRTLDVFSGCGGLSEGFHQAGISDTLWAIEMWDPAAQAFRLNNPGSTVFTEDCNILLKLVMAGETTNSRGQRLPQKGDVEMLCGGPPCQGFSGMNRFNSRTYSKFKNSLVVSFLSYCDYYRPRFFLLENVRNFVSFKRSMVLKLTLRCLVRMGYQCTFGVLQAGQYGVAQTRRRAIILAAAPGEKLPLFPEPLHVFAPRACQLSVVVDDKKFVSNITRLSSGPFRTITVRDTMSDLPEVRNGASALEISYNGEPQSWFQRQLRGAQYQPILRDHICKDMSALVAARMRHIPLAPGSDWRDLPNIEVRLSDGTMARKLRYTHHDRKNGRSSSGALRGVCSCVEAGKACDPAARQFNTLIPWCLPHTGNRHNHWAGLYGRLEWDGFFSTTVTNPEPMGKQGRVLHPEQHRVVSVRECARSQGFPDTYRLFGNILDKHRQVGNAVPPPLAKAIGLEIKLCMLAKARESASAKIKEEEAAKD
Description: His-DNMT1 (182 kDa, human) was cloned, expressed and purified as described in Halby et al. (ChemBioChem 2012, 13, 157-65). The reaction was performed in a 10 μL total reaction volume in low volume NBS™ 384-well microplates (Corning), containing the tested compound (up to 1% DMSO), 1 μM of a SAM/[methyl-^3H] SAM (3 TBq/mmol, PerkinElmer) mix in a ratio of 3-to-1 (isotopic dilution 1*:3), 0.3 μM of biotinylated hemimethylated DNA duplex (5′-GATmCGCmCGATGmCGmCGAATmCGmCGAT mCGATGmCGAT-3′ and BIOT-5′-[…] ATC-3′), and 90 nM of DNMT1 in methylation buffer (20 mM HEPES pH 7.2, 1 mM EDTA, 50 mM KCl, 25 μg/mL BSA). The reaction was incubated at 37° C. for 2 hours. 8 μL are then transferred into a streptavidin 96-well scintillant coated Flashplate™ (PerkinElmer) containing 190 μL of 20 μM SAH in 50 mM Tris-HCl pH 7.4. The Flashplate™ was agitated at room temperature for 1 hour, washed three times with 200 μL of 0.05% Tween®-20 in 50 mM Tris-HCl pH 7.4, and read in 200 μL of 50 mM Tris-HCl pH 7.4 on TopCount NXT (PerkinElmer).

[2] = system: PANC1 cells (human pancreatic carcinoma cells); test: Anti-proliferative activity on PANC1 cells (ATPlite one step); format: cell-based; conditions: PANC-1, 72 h incubation
Description: (§1) The antiproliferative activity of compounds was measured in vitro using the ATP quantification method “ATPlite one step assay” (Perkin Elmer ref 6016739) according to the manufacturer conditions.
(§2) Briefly, WM266.4 cells (human melanoma cells) (5×10^4 cells per ml in RPMI1640 medium, 10% FBS, 2 mM glutamine, 50 U/mL penicillin/streptomycin and 1.25 μg/mL fungizone), PANC1 cells (human pancreatic carcinoma cells) (2×10^4 cells per ml in DMEM medium, 10% FBS, 2 mM glutamine, 50 U/mL penicillin/streptomycin and 1.25 μg/mL fungizone), and U87MG cells (human neuronal gliablastoma-astrocytoma-cells) (3×10^4 cells per ml in MEM medium, 10% FBS, 2 mM glutamine, 50 U/mL penicillin/streptomycin and 1.25 μg/mL fungizone) were seeded in 96-well plates, incubated for 24 h and treated with 8 increasing concentrations of test compounds diluted in cells respective mediums, or vehicle in triplicate.
(§3) Cells were then incubated for 72 h at 37° C. in humidified 5% CO2 atmosphere.
(§4) At the end of the experiment, cell viability was evaluated by determining the level of ATP released by viable cells.
(§5) EC50 values were determined with curve fitting analysis method (non linear regression model with a sigmoid dose response, variable Hill slope coefficient) provided by the Prism Software (GraphPad). […]

[3] = molecular target: T2, human C-terminal DNMT3A (a.a. 623-908) (Homo sapiens, UniProt Q9Y6K1); test: DNMT3A assay (restriction-based fluorescence); format: biochemical; conditions: for inhibition at 10 µM: compound at 10 μM, read-out: DNMT3A (% of inhibition) 10 μM; for inhibition at 20 µM: compound at 20 μM; for EC50: concentration range in triplicates; for inhibition at 32 µM: compound at 32 μM, read-out: DNMT3A (% of inhibition) 32 μM
T2 construct: The human C-terminal DNMT3A (a.a. 623-908); made in house
T2 sequence (Q9Y6K1 627-912 limits assumed): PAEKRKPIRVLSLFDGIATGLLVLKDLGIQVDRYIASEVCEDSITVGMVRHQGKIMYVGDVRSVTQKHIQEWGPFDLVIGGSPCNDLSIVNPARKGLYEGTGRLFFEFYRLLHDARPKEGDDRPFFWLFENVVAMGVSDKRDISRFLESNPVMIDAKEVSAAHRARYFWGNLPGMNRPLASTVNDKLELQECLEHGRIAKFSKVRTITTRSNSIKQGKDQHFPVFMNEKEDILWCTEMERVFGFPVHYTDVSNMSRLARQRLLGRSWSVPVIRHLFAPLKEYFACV
Description: DNMT3A enzyme inhibition was adapted from the restriction-based fluorescence assay protocol described in Ceccaldi et al. (ChemBioChem 2011, 12, 1337-45). Briefly, a 5′-labelled biotin oligonucleotide is hybridized to its complementary strand labelled with 6-carboxyfluorescein at the 3′-end into a 384 well microplate (black Optiplates; Perkin Elmer) pre-coated with avidin. The duplex contains a unique CpG site overlapping with a restriction site of a methylation sensitive restriction enzyme. The human C-terminal DNMT3A (a.a. 623-908), produced as described in Gros et al. (Nucleic Acids Research 2013 Aug. 25), was added in each well (200 ng/well) and mixed with the chemical compounds at desired concentrations and freshly prepared AdoMet (20 μM final concentration) to start the reaction in a total volume of 50 μL. After 1 hour incubation at 37° C. each well were washed three times with PBS, Tween-20 0.05%, NaCl (500 mM) and three more times with PBST. Specific fluorescent signals were detected with the methylation-sensitive restriction enzyme HpyCH4IV (NEB) as described and measured on a Perkin Elmer Envision detector. The percentage of inhibition is reported. The formula used to calculate the percentage of inhibition is [(X−Y)/X]×100, where X is the signal determined in the absence of the inhibitor and Y is the signal obtained in the presence of the inhibitor. The concentration at which 50% of efficacy of inhibition is observed (EC50) was determined by analysis of a concentration range of the tested compound in triplicates. The non-linear regression fittings with sigmoidal dose-response (variable slope) were performed with GraphPad Prism 4.03 (GraphPad Software).

[4] = system: U87MG cells (human neuronal gliablastoma-astrocytoma-cells); test: Anti-proliferative activity on U87MG cells (ATPlite one step); format: cell-based; conditions: U-87 MG, 72 h incubation
Description: as §1, §2, §3, §4, §5

[5] = system: Karpas299 human leukemia cells; test: Anti-proliferative activity on Karpas 299 cells (ATPLite); format: cell-based; conditions: KARPAS-299, 96 h, treatment days 1-3, viability day 4, mean of at least two experiments, 95% confidence interval in brackets
Description: (§6) KG-1 and Karpas299 human leukemia cells were obtained from the ATCC (USA) and cultivated in RPMI 1640 medium (with HEPES and Glutamine, BE12-115F, Lonza, France) supplemented with, respectively, 20% and 15% foetal calf serum (Lonza, France), at 37° C. and under 5% CO2. To measure the anti-proliferative properties of tested molecules, 2×10^4 cells are seeded at day 0 in a 96 wells plate. The compounds to be tested, stored at −20° C. as 10^−2 M stock solution in 100% DMSO, are freshly diluted on day 1 in RPMI 1640 medium, before adding a dose range of 3.2 nM to 10 μM to the cells. This treatment is repeated on day 2 and 3, and on day 4 cell viability is assessed using the ATPLite kit from Perkin (ATPlite 1 Step Luminescence Assay System, ref 3016739), following the provider instructions. The raw data are analyzed with GraphPad Prism software (v4.03) to generate EC50 values corresponding to the compound concentrations giving 50% reduction in cell viability. The values presented are the mean results of at least two independent experiments.

[6] = system: WM266.4 cells (human melanoma cells); test: Anti-proliferative activity on WM266.4 cells (ATPlite one step); format: cell-based; conditions: WM 266-4, 72 h incubation, read-out: EC50 (μM) WN226.4
Description: as §1, §2, §3, §4, §5

[7] = system: KG-1 human leukemia cells; test: Anti-proliferative activity on KG-1 cells (ATPLite); format: cell-based; conditions: KG-1, 96 h, treatment days 1-3, viability day 4, mean of at least two experiments, 95% confidence interval in brackets
Description: as §6

inhibition at 32 µM [1] | inhibition at 100 µM [1] | EC50 [2] | inhibition at 10 µM [3] | inhibition at 20 µM [3] | EC50 [3] | EC50 [4] | EC50 [5] | EC50 [6] | EC50 [7] | inhibition at 32 µM [3] | SMILES
38% | 98.4% |  | 80% |  |  |  |  |  |  | 99% | c1ccc(CCNc2ncnc3cc(OCC4CCN(CCNc5ccnc6ccccc56)CC4)ccc23)cc1 [Compound O, 4-(3-phenethylamino)-7-((1-(2-(quinolin-4-ylamino)ethyl)piperidin-4-yl)methoxy)quinazoline]
26% | 22% |  | 43% |  | 13.1 µM |  |  |  |  | 81% | c1ccc(CNc2ncnc3cc(OCC4CCN(CCNc5ccnc6ccccc56)CC4)ccc23)cc1 [Compound P, 4-(3-benzylamino)-7-((1-(2-(quinolin-4-ylamino)ethyl)piperidin-4-yl)methoxy)quinazoline]
74% | 99.6% |  | 61% |  | 5.7 µM |  |  |  |  | 68% | Cc1cc(NCCNc2ncnc3cc(OCC4CCN(CCNc5ccnc6ccccc56)CC4)ccc23)nc(N)n1 [Compound Q, 6-methyl-N^4-(2-((7-((1-(2-(quinolin-4-ylamino)ethyl)piperidin-4-yl)methoxy)quinazolin-4-yl)amino)ethyl)pyrimidine-2,4-diamine]
45% | 98.4% |  | 65% |  |  |  |  |  |  | 99% | O=c1c2ccc(OCC3CCN(CCNc4ccnc5ccccc45)CC3)cc2ncn1CCCc1ccccc1 [Compound R, 3-(3-phenylpropyl)-7-((1-(2-(quinolin-4-ylamino)ethyl)piperidin-4-yl)methoxy)quinazolinone]
 | 90% |  | 52% |  |  |  |  |  |  | 95% | c1ccc(CCCNc2ncnc3cc(OCCNc4ccnc5ccccc45)ccc23)cc1 [Compound S, 4-(3-phenylpropylamino)-7-(2-(quinolin-4-ylamino)ethoxy)quinazoline]

Second part, the molecule before the results:

SMILES | inhibition at 32 µM [1] | inhibition at 100 µM [1] | EC50 [2] | inhibition at 10 µM [3] | inhibition at 20 µM [3] | EC50 [3] | EC50 [4] | EC50 [5] | EC50 [6] | EC50 [7] | inhibition at 32 µM [3]
c1ccc(CCCNc2ncnc3cc(OCC4CCN(CCNc5ccnc6ccccc56)CC4)ccc23)cc1 [Compound G, 4-((3-phenylpropyl)amino)-7-((1-(2-(quinolin-4-ylamino)ethyl)piperidin-4-yl)methoxy)quinazoline] | 24.5% | 91.2% | 1.2 µM | 81% | 97% | 2.4 µM | 8.9 µM | 1.8 µM | 3.9 µM | 0.5 µM | 
CCCNc1ncnc2cc(OCC3CCN(CCNc4ccnc5ccccc45)CC3)ccc12 [Compound H, 4-propylamino-7-((1-(2-(quinolin-4-ylamino)ethyl)piperidin-4-yl)methoxy)quinazoline] |  | 94.9% |  | 28% | 44% |  |  |  |  |  | 69%
Nc1ncnc2cc(OCC3CCN(CCNc4ccnc5ccccc45)CC3)ccc12 [Compound I, 4-amino-7-((1-(2-(quinolin-4-ylamino)ethyl)piperidin-4-yl)methoxy)quinazoline] |  | 99.3% |  | 16% | 32% |  |  |  |  |  | 68%
c1ccc(CCCNc2ncnc3cc(OCC4CCN(CCNc5ccncc5)CC4)ccc23)cc1 [Compound J, 4-(3-phenylpropylamino)-7-((1-(2-(pyridin-4-ylamino)ethyl)piperidin-4-yl)methoxy)quinazoline] |  | 33.7% |  | 47% | 65% |  |  |  |  |  | 72%
O=c1c2ccc(OCC3CCN(CCNc4ccnc5ccccc45)CC3)cc2ncn1CCNc1ccnc2ccccc12 [Compound M] | 100% | 100% |  | 89% |  | 1.1 µM |  | 0.7 µM |  | 1.3 µM | 91%
c1ccc(-c2ccc(CNc3ncnc4cc(OCC5CCN(CCNc6ccnc7ccccc67)CC5)ccc34)cc2)cc1 [Compound N, 4-([1,1′-biphenyl]-4-ylmethylamino)-7-((1-(2-(quinolin-4-ylamino)ethyl)piperidin-4-yl)methoxy)quinazoline] | 24% | 69% |  | 86% |  |  |  |  |  | 0.4 µM | 83%
